Data: patent publication US6376175B1, “Methods of discovering chemicals capable of functioning as gene expression modulators” (OSI Pharmaceuticals, Inc., priority 1989, dated 2002)
Read-outs that look alike come from different tables or passages of the source.

What was measured:
human G-CSF promoter = type: cell-based; conditions: 7-hour incubation, serum-free media
Source text: A human bladder carcinoma cell line (U5637, ATCC number HTB 9) was used for transfection of plasmids containing the human Granulocyte-Colony Stimulating Factor (G-CSF) promoter (see below) and was maintained in RPMI medium supplemented with 10% FCS. For HTP screening, transfected 5637 clones were transferred to a serum free defined medium identical to that used for the NIH/3T3 clones.
The sequences of OL-1, OL-2 and OL-5 recognize the G-CSF promoter region, OL-4 recognizes the first intron/exon junction and OL-3 recognizes sequences within the second exon (32). One of the clones isolated from the leukocyte library using these oligonucleotide probes contains a 3.5 kb SalI-BamHI fragment of G-CSF genomic sequence consisting of 3.3 kb of promoter sequence and two hundred base pairs of the coding region. This fragment was inserted into the vector pGEM-7-Zf (Promega, Madison, Wis.) which had previously been digested with SalI/BamHI, resulting in the vector pJM710 (FIG. 7). pJM710 was then digested with PstI, and the resulting 1.6 kb fragment containing G-CSF upstream sequences and the first 15 bases of the G-CSF leader sequence was inserted into the PstI site of pGEM5-Luci (FIG. 8) to generate pG-Lucl (FIG. 9). This construct was then used for transfection of 5637 human bladder carcinoma cells as described below in section E3. pGEM5-Luci (FIG. 8) had previously been constructed by inserting the […]/SalI fragment from pSVLuci (FIG. 2) containing the luciferase coding sequence and the SV40 late polyadenylation signal into pGEM 5-Zf (Promega, Madison Wis.) digested with XhoI/SalI.
pG-LUC1 (FIG. 9) and pRSVNeo were co-transfected into 5637 human bladder carcinoma cells as described above. Selection of G418 resistant clones was as described above except for using a concentration of 0.1 mg/ml G418. Analysis of cell clones was performed as above except that a known inducer of G-CSF expression (1-5 µg/ml lipopolysaccharide (LPS), E. coli serotype 055:b5, Difco, Detroit, Mich. or Sigma, St. Louis, Mo.) was used in place of dexamethasone.
Cell plating: Dynatech Microlite 96 well plates were custom pretreated for cell attachment by Dynatech Laboratories, Inc. (Chantilly, Va.). Alternatively, the 96 well plates were treated with 50 µl per well of human fibronectin (hFN, 15 µg/ml in PBS, Collaborative Research, Bedford, Mass.) overnight at 37 C. hFN-treated plates were washed with PBS using an Ultrawash 2 Microplate Washer (Dynatech Labs), to remove excess hFN prior to cell plating. M10, 532, and G21 cells maintained in their respective serum media (with 0.2 mg/ml G418) were washed with PBS, harvested by trypsinization, and counted using a hemocytometer and the Trypan Blue exclusion method according to protocols provided by Sigma, St. Louis, Mo. Chemical Company. Cells were then diluted into serum free defined media (with 0.2 mg/ml G418), and 0.2 ml of cell suspension per well was plated onto Dynatech treated plates (532 and G21) or hFN-treated plates (M10) using a Cetus Pro/Pette (Cetus, Emeryville Calif.). Plates were incubated overnight at 37 C in a humidified 5% CO2 atmosphere.
Addition of Chemicals to Cells: Chemicals from the Oncogene Science file were dissolved in DMSO at concentrations of 3-30 mg/ml. A liquid handling laboratory work station (RSP 5052, Tecan U.S. Chapel Hill, N.C.) was used to dilute the chemicals (three dilutions; 5 fold, 110 fold, and 726 fold). 10 11 of each dilution were added to each of quadruplicate samples of cells contained in the wells of 96-well Dyantech Microlite Plates. […]

GM-CSF promoter = assay: GM-CSF promoter-luciferase induction by known inducers, clones GM 1073, GM 1088, GM 1105; type: cell-based, human; conditions: for luciferase expression induction, clone 1088: GM-CSF reporter clone GM 1088; for luciferase expression induction, clone 1105: GM-CSF reporter clone GM 1105
Method: All routine subcloning procedures were performed as described by Maniatis et al. (1982), (28) unless otherwise noted. The about 0.7 kb HindIII/RsaI fragment of the GM-CSF clone (FIG. 20) was inserted into pUC 18 previously digested with HindIII/HincII. The about 0.7 kb HindIII/SmaI fragment was then isolated from the resulting vector and cloned into pUV 100 digested previously with HindIII/SnaBI, thereby generating pGMLUCI (FIG. 22.) In order to correctly fuse the GM-CSF ATG with the coding region of luciferase, four oligonucleotides (FIG. 21) were synthesized, phosphorylated, annealed, ligated, and inserted into pUC19 previously digested with Eco RI/XbaI, generating pGM-1 (FIG. 22). pGM-1 was then sequences (Sequenase Kit, US Biochemicals, Cleveland, Ohio) using the M13 forward (U.S. Biochem.) and reverse primers (Pharmacia, Piscataway, N.J.) to ensure that there were no mutations in the synthesized oligonucleotides. The about 1.8 kb BstEII/ScaI fragment from pGM-1 was then isolated and ligated to about 1.5 kb BstEII/ScaI fragment from pGMLUCI to generate pGM-2 (FIG. 22). pGM-2 was then digested with Hind III/XbaI and about 0.7 kb fragment was cloned into pUV 102 and pUV 103 previously digested with HindIII/XbaI. This generated pGMLS102 and pGMLS103 (FIG. 22), which contain 663 bp of GM-CSF sequence 5′ of the ATG fused directly to the second (correct) ATG of luciferase and the rest of the luciferase coding region. An additional about 1.4 kb of upstream sequences were cloned into this construct by isolating the about 1.4 kb SalI/HindIII fragment from the GM-CSF clone (FIG. 20), blunting the SalI end by filling in with Klenow polymerase, and inserting the fragment into pGMLS102 and pGMSL103 previously digested with HindIII/SnaBI. This step generated pGMLL102 and PGMLL103, respectively (FIG. 23). Finally, the pTKNEO2 and PTKNEO3 about 1.8 kb SfiI fragments were cloned directly into the SfiI site of pGMLL103 to generated pGMLL103 NEO2 and pGMLL103 NEO3.
6 clones generated by electroporation with pGMLL103 NEO3 (FIG. 23; Materials and Methods, section D.2) were subjected to further analysis as described above: GM 1073 (10 ug; circular); GM 1081, 1088 and 1090 (5 ug; linear); and GM 1098 and 1105 (10 ug; linear).
Promoter induction experiments were also conducted with the GM-CSF reporter cell lines GM 1073, GM 1088 and GM 1105, which were all shown to contain correctly inserted constructs (see above). […] Luciferase expression of clones 1088 and 1105 was induced by PMA 2.8 fold and 2 fold, respectively, while TNF-alpha induced both clones 2 fold.

Row | Compound | increase of luciferase expression directed by the G-CSF promoter, G 21 cells (human G-CSF promoter; absence of EGF) | increase of luciferase expression directed by the G-CSF promoter, G 21 cells (human G-CSF promoter; presence of EGF) | GM-CSF promoter induction, GM 1073 cells (GM-CSF promoter; 10.5 hours, 20 ng/ml PMA, serum-containing media) | luciferase expression induction, clone 1088 (GM-CSF promoter) | luciferase expression induction, clone 1105 (GM-CSF promoter) | GM-CSF promoter induction, GM 1073 cells (GM-CSF promoter; PMA, serum-free media)
1 | CCCCCCCCCCCCCC(=O)O[C@@H]1[C@@H](C)[C@@]2(O)[C@@H](C=C(CO)C[C@]3(O)C(=O)C(C)=C[C@@H]23)[C@@H]2C(C)(C)[C@]12OC(C)=O [PMA, phorbo-myristate-acetate, reference compound] | 34.6 fold | 24.6 fold | 3.4 fold | 2.8 fold | 2 fold | 7.5 fold
2 | TNF-alpha | 2.1 fold | 2.8 fold |  | 2 fold | 2 fold | 
